# How the values were obtained:
# HepG2 = experiment: Cytotoxicity in human HepG2 cells assessed as reduction in cell viability incubated for 24 hrs by MTT assay; type: functional, cell-based; details: HepG2, 24 h
# HeLa [1] = experiment: Cytotoxicity in human HeLa cells assessed as reduction in cell viability incubated for 24 hrs by MTT assay; type: functional, cell-based
# [2] = Cytotoxicity in human HELF cells assessed as reduction in cell viability incubated for 24 hrs by MTT assay; type: cell-based
# BGC-823 = experiment: Cytotoxicity in human BGC823 cells assessed as reduction in cell viability incubated for 72 hrs by MTT assay; type: functional, cell-based; details: BGC-823, 72 h
# Bel-7402 = experiment: Cytotoxicity in human Bel7402 cells assessed as reduction in cell viability incubated for 72 hrs by MTT assay; type: functional, cell-based; details: Bel-7402, 72 h
# HeLa [3] = experiment: Cytotoxicity in human HeLa cells assessed as reduction in cell viability incubated for 72 hrs by MTT assay; type: functional, cell-based
# HT-29 [4] = experiment: Cytotoxicity in human HT-29 cells assessed as reduction in cell viability incubated for 72 hrs by MTT assay; type: functional, cell-based; details: HT-29, 72 h
# HCT-116 = experiment: Cytotoxicity in human HCT116 cells assessed as reduction in cell viability incubated for 96 hrs by SRB assay; type: functional, cell-based; details: HCT-116, 96 h
# HCT-8 = experiment: Cytotoxicity in human HCT8 cells assessed as reduction in cell viability incubated for 96 hrs by SRB assay; type: functional, cell-based; details: HCT-8, 96 h
# HT-29 [5] = experiment: Cytotoxicity in human HT-29 cells assessed as reduction in cell viability incubated for 96 hrs by SRB assay; type: functional, cell-based; details: HT-29, 96 h
# CT26 = experiment: Cytotoxicity in mouse CT26 cells assessed as reduction in cell viability incubated for 96 hrs by SRB assay; type: functional, cell-based; details: CT26, 96 h
# PC-3 = experiment: Cytotoxicity in human PC3 cells assessed as reduction in cell viability incubated for 96 hrs by SRB assay; type: functional, cell-based; details: PC-3, 96 h
# DU-145 = experiment: Cytotoxicity in human DU145 cells assessed as reduction in cell viability incubated for 96 hrs by SRB assay; type: functional, cell-based; details: DU-145, 96 h
# MDA-MB-231 [6] = experiment: Cytotoxicity in human MDA-MB-231 cells assessed as reduction in cell viability incubated for 96 hrs by SRB assay; type: functional, cell-based; details: MDA-MB-231, 96 h
# 4T1 = experiment: Cytotoxicity in mouse 4T1 cells assessed as reduction in cell viability incubated for 96 hrs by SRB assay; type: functional, cell-based; details: 4T1, 96 h
# MCF7 = experiment: Cytotoxicity in human MCF7 cells assessed as reduction in cell viability incubated for 48 hrs by SRB assay; type: functional, cell-based; details: MCF7, 48 h
# MDA-MB-231 [7] = experiment: Cytotoxicity in human MDA-MB-231 cells assessed as reduction in cell viability incubated for 48 hrs by SRB assay; type: functional; details: MDA-MB-231, 48 h
SMILES,IC50 (HCT-116),IC50 (HCT-8),IC50 (HT-29 [5]),IC50 (CT26),IC50 (PC-3),IC50 (DU-145),IC50 (MDA-MB-231 [6]),IC50 (4T1),further results
CC(=O)O[C@H]1CC[C@]2(C)[C@H]3CC=C4[C@@H]5[C@@H](C)[C@H](C)CC[C@]5(C(=O)N5CCNCC5)CC[C@@]4(C)[C@]3(C)CC[C@H]2C1(C)C,,,,,,,,,IC50 (HepG2): 4.8 µM; IC50 (HeLa [1]): 7 µM; IC50 [2]: 9.1 µM
Cc1nc(C)c(COC(=O)[C@]23CCC(C)(C)C[C@H]2C2=CC[C@@H]4[C@@]5(C)CC[C@H](O)C(C)(C)[C@@H]5CC[C@@]4(C)[C@]2(C)CC3)nc1C,,,,,,,,,IC50 (BGC-823): > 30 µM; IC50 (Bel-7402): 6.36 µM; IC50 (HeLa [3]): 28.7 µM; IC50 (HT-29 [4]): 29.8 µM
COC(=O)[C@@]1(C)CC[C@]2(C)CC[C@]3(C)C(=CC(=O)[C@@H]4[C@@]5(C)Cc6cn(C(=O)C7CCCNC7)nc6C(C)(C)[C@@H]5CC[C@]43C)[C@H]2C1 (stereo not given in full),22 µM,23.8 µM,21.8 µM,23.7 µM,23.1 µM,21.9 µM,24 µM,9.68 µM,
C[C@H]1[C@H](C)CC[C@]2(C(=O)OCCCn3cc(COC(=O)[C@]45CC[C@@H](C)[C@H](C)[C@@H]4C4=CC[C@@H]6[C@@]7(C)CC[C@H](O)[C@](C)(CO)[C@@H]7CC[C@]6(C)[C@]4(C)CC5)cn3)CC[C@]3(C)C(=CC[C@@H]4[C@@]5(C)CC[C@H](O)C(C)(C)[C@@H]5CC[C@]43C)[C@H]12,,,,,,,,,GI50 (MCF7): 12.1 µM; GI50 (MDA-MB-231 [7]): 4.5 µM
COC(=O)[C@@]1(C)CC[C@]2(C)CC[C@]3(C)C(=CC(=O)[C@@H]4[C@@]5(C)Cc6cn(S(C)(=O)=O)nc6C(C)(C)[C@@H]5CC[C@]43C)[C@H]2C1,8.7 µM,24.5 µM,18.5 µM,15.2 µM,18.9 µM,> 50 µM,28.6 µM,12.5 µM,
COC(=O)[C@@]1(C)CC[C@]2(C)CC[C@]3(C)C(=CC(=O)[C@@H]4[C@@]5(C)Cc6cn(C(=O)CCCC7CCNCC7)nc6C(C)(C)[C@@H]5CC[C@]43C)[C@H]2C1,6.99 µM,11.7 µM,8.76 µM,8.08 µM,5.19 µM,7.54 µM,9.76 µM,6.09 µM,
COC(=O)[C@@]1(C)CC[C@]2(C)CC[C@]3(C)C(=CC(=O)[C@@H]4[C@@]5(C)Cc6c(n[nH]c6C(F)(F)F)C(C)(C)[C@@H]5CC[C@]43C)[C@H]2C1,11.9 µM,20 µM,27.6 µM,22 µM,19.8 µM,33.6 µM,27.4 µM,15.7 µM,
C[C@H]1[C@H](C)CC[C@]2(C(=O)N3CCNCC3)CC[C@]3(C)C(=CC[C@@H]4[C@@]5(C)CC[C@H](O)C(C)(C)[C@@H]5CC[C@]43C)[C@H]12,,,,,,,,,IC50 (HepG2): 5.1 µM; IC50 (HeLa [1]): 14.4 µM; IC50 [2]: 12.6 µM
C[C@H]1[C@H](C)CC[C@]2(C(=O)OCCCn3cc(COC(=O)[C@]45CC[C@@H](C)[C@H](C)[C@@H]4C4=CC[C@@H]6[C@@]7(C)C[C@H](O)[C@H](O)[C@](C)(CO)[C@@H]7CC[C@]6(C)[C@]4(C)CC5)cn3)CC[C@]3(C)C(=CC[C@@H]4[C@@]5(C)CC[C@H](O)C(C)(C)[C@@H]5CC[C@]43C)[C@H]12,,,,,,,,,GI50 (MCF7): 12.8 µM; GI50 (MDA-MB-231 [7]): 7.4 µM
C[C@H]1[C@H](C)CC[C@]2(C(=O)NCCCCCCCCN)CC[C@]3(C)C(=CC[C@@H]4[C@@]5(C)CC[C@H](O)C(C)(C)[C@@H]5CC[C@]43C)[C@H]12,,,,,,,,,IC50 (HepG2): 26.7 µM; IC50 (HeLa [1]): 16.9 µM; IC50 [2]: 39.4 µM
COC(=O)[C@@]1(C)CC[C@]2(C)CC[C@]3(C)C(=CC(=O)[C@@H]4[C@@]5(C)Cc6cn(OC(C)=O)nc6C(C)(C)[C@@H]5CC[C@]43C)[C@H]2C1,14.1 µM,29.2 µM,31 µM,33 µM,25.4 µM,36.7 µM,32.3 µM,20.1 µM,
COC(=O)[C@@]1(C)CC[C@]2(C)CC[C@]3(C)C(=CC(=O)[C@@H]4[C@@]5(C)Cc6cn(C(=O)CC7CCNCC7)nc6C(C)(C)[C@@H]5CC[C@]43C)[C@H]2C1,12.1 µM,8.98 µM,12.1 µM,9.87 µM,11.7 µM,13.3 µM,10.1 µM,5.8 µM,

# From ChEMBL document CHEMBL4270495, “Oleanane-, ursane-, and quinone methide friedelane-type triterpenoid derivatives: Recent advances in cancer treatment” (Eur J Med Chem, 2017)
